Results on 8 compounds are retold here after patent publication US20200215036A1, “BENZIMIDAZOLE COMPOUNDS AS KINASE INHIBITORS” (GB005, Inc., priority 2017, published 2020).

The target of one test is T1, ITK (Homo sapiens, UniProt Q08881).
T1 sequence (Q08881 1-620): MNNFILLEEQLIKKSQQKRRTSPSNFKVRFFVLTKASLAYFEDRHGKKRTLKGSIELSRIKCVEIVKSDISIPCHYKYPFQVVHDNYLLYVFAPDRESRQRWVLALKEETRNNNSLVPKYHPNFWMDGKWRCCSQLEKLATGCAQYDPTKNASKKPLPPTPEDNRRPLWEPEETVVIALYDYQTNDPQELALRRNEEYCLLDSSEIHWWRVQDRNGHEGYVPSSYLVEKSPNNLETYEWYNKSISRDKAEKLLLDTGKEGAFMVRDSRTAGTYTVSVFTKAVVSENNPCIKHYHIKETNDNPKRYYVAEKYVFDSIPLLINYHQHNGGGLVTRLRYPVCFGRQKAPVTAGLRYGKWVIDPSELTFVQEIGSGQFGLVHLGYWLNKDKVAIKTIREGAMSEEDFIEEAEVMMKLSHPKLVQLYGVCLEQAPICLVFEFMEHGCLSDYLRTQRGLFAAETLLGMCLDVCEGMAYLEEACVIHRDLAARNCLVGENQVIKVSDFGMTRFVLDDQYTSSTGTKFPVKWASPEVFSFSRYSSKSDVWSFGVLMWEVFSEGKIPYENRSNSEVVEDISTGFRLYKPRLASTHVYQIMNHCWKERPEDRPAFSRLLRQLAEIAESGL
Nature of the test: Biochemical kinase assay (Nanosyn, micro-fluidic detection), ITK. The settings on record: 12 concentrations, 3 hours incubation, 1 uM peptide substrate. On the procedure:
(§1) The in vitro kinase assays were performed at Nanosyn (Santa Clara, Calif.) utilizing micro-fluidic detection Technology. The test compounds were serially pre-diluted in DMSO and added, by the acoustic dispensing (Labcyte® 550), directly to 384we11 assay plates into 10 uL of a buffer with enzyme comprising: 100 mM HEPES, pH7.5, 5 mM MgCl2, 0.1% bovine serum albumin, 1 mM DTT, 0.01% Triton X-100 and the enzyme. Final DMSO concentration was maintained at 1% in all samples, including the controls. The reactions were initiated by addition of ATP (to the specified concentration) and the fluorescently labeled peptide substrate to a final concentration of 1 uM, and incubated for 3 hours at […]. Following incubation, the reactions were quenched by addition of 40 μL of termination buffer (100 mM HEPES, pH7.5, 0.01% Triton X-100, 50 mM EDTA). Terminated plates were analyzed using Caliper LabChip® 3000 microfluidic electrophoresis instrument (Caliper Life Sciences/Perkin Elmer). The enzymatic modification of the peptide substrate (phosphorylation) results in a change of net charge enabling electrophoretic separation of product from substrate. As substrate and product are separated by electrophoresis, two peaks of fluorescence are observed. Change in the relative fluorescence intensity of the substrate and product peaks was the parameter measured, reflecting enzyme activity. In the presence of inhibitor, the ratio between product and substrate is altered: signal of the product decreases, while the signal of the substrate increases. Activity in each test sample was determined as the product to sum ratio (PSR): P/(S+P), where P is the peak height of the product and S is the peak height of the FAM-cAMP substrate. For each compound, enzyme activity was measured at 12 concentrations spaced by 3× dilution intervals. Negative control samples (0%−inhibition in the absence of inhibitor, DMSO only) and positive control samples (100%−inhibition, in the absence of enzyme or in the presence of control inhibitor) were assembled in replicates of four and were used to calculate %−inhibition values in the presence of compounds. Percent inhibition (Pinh) was determined using the following equation: Pinh=(PSR0%−PSRinh)/(PSR0%−PSR100%)*100, where PSRinh is the product sum ratio in the presence of inhibitor, PSR0% is the product sum ratio in the absence of inhibitor and PSR100% is the product sum ratio in 100%-inhibition control samples. To determine IC50 values, the inhibition curves (Pinh versus inhibitor concentration) were fitted by 4 parameter sigmoid dose-response model using XLfit software (IDBS).

A further test concerns the target T2, TXK (Homo sapiens, UniProt P42681).
T2 sequence (P42681 1-527): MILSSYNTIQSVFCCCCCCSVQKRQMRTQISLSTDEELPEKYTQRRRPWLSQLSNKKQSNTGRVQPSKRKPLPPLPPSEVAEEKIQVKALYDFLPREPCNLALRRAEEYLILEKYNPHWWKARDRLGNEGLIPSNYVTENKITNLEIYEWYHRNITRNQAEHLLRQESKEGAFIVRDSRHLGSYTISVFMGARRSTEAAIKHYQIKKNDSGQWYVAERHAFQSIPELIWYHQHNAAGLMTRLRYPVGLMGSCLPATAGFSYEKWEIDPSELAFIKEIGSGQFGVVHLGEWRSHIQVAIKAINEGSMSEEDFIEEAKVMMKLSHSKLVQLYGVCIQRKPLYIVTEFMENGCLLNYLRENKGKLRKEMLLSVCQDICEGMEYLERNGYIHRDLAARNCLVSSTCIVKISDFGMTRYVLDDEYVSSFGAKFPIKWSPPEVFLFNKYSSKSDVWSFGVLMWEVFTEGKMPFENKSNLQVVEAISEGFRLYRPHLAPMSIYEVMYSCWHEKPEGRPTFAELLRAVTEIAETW
Nature of the test: Biochemical kinase assay (Nanosyn, micro-fluidic detection), TXK. The settings on record: for pIC50: 12 concentrations, 3 hours incubation, 1 uM peptide substrate; for ITK/TXK Ratio: ratio of ITK IC50 to TXK IC50. On the procedure: as §1

In the next test the target is BTK (Homo sapiens, UniProt Q06187). Nature of the test: Biochemical kinase assay (Nanosyn, micro-fluidic detection), BTK. The settings on record: 12 concentrations, 3 hours incubation, 1 uM peptide substrate. On the procedure:
as §1

Another test concerns the target T3, TEC (Homo sapiens, UniProt P42680).
T3 sequence (P42680 1-631): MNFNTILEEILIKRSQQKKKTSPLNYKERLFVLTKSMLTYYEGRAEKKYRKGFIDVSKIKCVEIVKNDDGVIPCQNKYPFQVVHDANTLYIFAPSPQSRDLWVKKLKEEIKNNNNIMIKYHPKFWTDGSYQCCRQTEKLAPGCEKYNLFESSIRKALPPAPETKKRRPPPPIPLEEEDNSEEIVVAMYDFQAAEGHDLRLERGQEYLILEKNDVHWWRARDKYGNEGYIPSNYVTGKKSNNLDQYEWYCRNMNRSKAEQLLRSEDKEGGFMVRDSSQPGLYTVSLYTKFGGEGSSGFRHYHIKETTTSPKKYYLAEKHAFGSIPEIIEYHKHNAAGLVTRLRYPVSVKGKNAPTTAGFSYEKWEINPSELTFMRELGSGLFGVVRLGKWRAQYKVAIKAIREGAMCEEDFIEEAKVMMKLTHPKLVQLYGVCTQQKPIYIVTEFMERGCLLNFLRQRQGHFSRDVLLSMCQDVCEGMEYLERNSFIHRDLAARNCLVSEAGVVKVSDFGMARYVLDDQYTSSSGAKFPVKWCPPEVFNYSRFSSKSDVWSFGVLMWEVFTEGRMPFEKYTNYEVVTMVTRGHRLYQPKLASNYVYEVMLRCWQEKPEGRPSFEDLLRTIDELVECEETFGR
Kind of test: Biochemical kinase assay (Nanosyn, micro-fluidic detection), TEC. The following applies: 12 concentrations, 3 hours incubation, 1 uM peptide substrate. On the procedure: as §1

pIC50: −log10 of the molar value.

BTK, sequence (Q06187 whole entry): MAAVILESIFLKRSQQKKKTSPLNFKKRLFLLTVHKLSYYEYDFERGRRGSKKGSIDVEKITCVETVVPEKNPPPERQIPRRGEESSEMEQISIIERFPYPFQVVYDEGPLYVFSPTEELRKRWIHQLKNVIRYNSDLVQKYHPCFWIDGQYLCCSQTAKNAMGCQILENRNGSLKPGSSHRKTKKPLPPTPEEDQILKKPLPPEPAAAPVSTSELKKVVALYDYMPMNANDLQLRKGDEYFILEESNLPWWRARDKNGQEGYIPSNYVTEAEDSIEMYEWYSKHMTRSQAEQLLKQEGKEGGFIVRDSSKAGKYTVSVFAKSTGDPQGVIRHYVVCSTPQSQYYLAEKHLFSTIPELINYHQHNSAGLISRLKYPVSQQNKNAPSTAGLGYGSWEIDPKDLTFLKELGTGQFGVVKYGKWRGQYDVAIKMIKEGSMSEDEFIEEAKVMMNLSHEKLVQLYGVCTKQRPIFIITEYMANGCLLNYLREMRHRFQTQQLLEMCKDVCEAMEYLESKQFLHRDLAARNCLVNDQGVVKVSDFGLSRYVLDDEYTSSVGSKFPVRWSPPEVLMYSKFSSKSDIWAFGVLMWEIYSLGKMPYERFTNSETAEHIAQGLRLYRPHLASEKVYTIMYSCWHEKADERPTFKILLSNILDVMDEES

As usually defined, the pIC50 is the IC50 on a negative log10 scale, so that one unit is a factor of ten. A low value points to a large IC50. Consider `C=CC(=O)N1CC[C@]2(C1)C[C@H](n1c(NC(=O)c3cc(C)no3)nc3cc(CN4CCN(C)CC4)ccc31)C2` [Compound 3], for which the negative-log IC50 (pIC50) was 7.09 against ITK, 8.46 against TXK, 7.75 at BTK and 7.36 against TEC. At TXK, the “ITK/TXK Ratio” value came to 23.2.

For the compound `C=CC(=O)N1CC[C@]2(C1)C[C@H](n1c(NC(=O)c3cc(C4CCCCC4)no3)nc3cc(CN4CCCC4)ccc31)C2` [Compound 6], the pIC50 on ITK is less than 6.00; on TXK it was 8.75; against BTK, 8.00; against TEC it was 6.98. Also, the “ITK/TXK Ratio” value at TXK was greater than 561.

As for `C=CC(=O)N1CC[C@]2(C1)C[C@H](n1c(NC(=O)c3cc(C(C)C)no3)nc3cc(CN4CCCC4)ccc31)C2` [Compound 4], the negative logarithm of the IC50 (pIC50) against ITK was 6.26; at TXK, 8.85; at BTK it was 7.92; at TEC, 7.02. Further, the “ITK/TXK Ratio” value at TXK is 390.

`C=CC(=O)N1CC[C@]2(C1)C[C@H](n1c(NC(=O)c3cc(C4CCC4)no3)nc3cc(CN4CCCC4)ccc31)C2` [Compound 5]: the pIC50 is 6.24 at ITK, 8.90 at TXK, 8.12 against BTK and 7.30 against TEC. The “ITK/TXK Ratio” value on TXK was 461.

Take `C=CC(=O)N1CC[C@]2(C1)C[C@H](n1c(NC(=O)c3cc(C)no3)nc3cc(CN4CCOCC4)ccc31)C2` [Compound 2]: the negative-log IC50 (pIC50) at ITK was 7.39; at TXK, 8.52; against BTK it was 7.83; against TEC it was 7.95. Besides, the “ITK/TXK Ratio” value at TXK turned out to be 13.5.

Consider `C=CC(=O)N1CC[C@]2(C1)C[C@H](n1c(NC(=O)c3cc(C(C)(C)C)no3)nc3cc(CN4CCCC4)ccc31)C2` [Compound 7], for which the pIC50 against ITK was 6.27; against TXK it was 8.30; at BTK, 7.22; against TEC, 6.28.

`C=CC(=O)N1CC[C@]2(C1)C[C@H](n1c(NC(=O)c3cc(-c4ccccc4)no3)nc3cc(CN4CCCC4)ccc31)C2` [Compound 8]: the negative logarithm of the IC50 (pIC50) against ITK was 6.43; against TXK it was 8.71; on BTK it was 7.59; against TEC it was 6.87. Moreover, the “ITK/TXK Ratio” value on TXK amounted to 187.

Turning to `C=CC(=O)N1CC[C@]2(C1)C[C@H](n1c(NC(=O)c3cc(C)no3)nc3cc(CN4CCCC4)ccc31)C2` [Compound 1], the pIC50 is 6.90 on ITK, 8.28 on TXK, 7.79 against BTK and 7.02 at TEC. Besides, at TXK, the “ITK/TXK Ratio” value is listed as 24.1.
